Patent publication US20250367173A1, “ECTONUCLEOTIDE PYROPHOSPHATASE-PHOSPHODIESTERASE-1 INHIBITORS AND PHARMACEUTICAL COMPOSITIONS COMPRISING THE SAME” (LigaChem Biosciences Inc., priority 2022, published 2025)

What was measured:
ENPP-1 [1] = biological target: T1, ENPP-1 (Homo sapiens, UniProt P22413); assay: ENPP-1 enzyme assay with cGAMP substrate; type: biochemical; conditions: 200 pM ENPP-1, 10 μM substrate 2′3′-cGAMP, pH 7.4, 37° C., 30 minutes, Transcreener AMP2/GMP2 kit; average IC50
T1 construct: purchased Biovendor RD172124100
T1 sequence (P22413 1-925): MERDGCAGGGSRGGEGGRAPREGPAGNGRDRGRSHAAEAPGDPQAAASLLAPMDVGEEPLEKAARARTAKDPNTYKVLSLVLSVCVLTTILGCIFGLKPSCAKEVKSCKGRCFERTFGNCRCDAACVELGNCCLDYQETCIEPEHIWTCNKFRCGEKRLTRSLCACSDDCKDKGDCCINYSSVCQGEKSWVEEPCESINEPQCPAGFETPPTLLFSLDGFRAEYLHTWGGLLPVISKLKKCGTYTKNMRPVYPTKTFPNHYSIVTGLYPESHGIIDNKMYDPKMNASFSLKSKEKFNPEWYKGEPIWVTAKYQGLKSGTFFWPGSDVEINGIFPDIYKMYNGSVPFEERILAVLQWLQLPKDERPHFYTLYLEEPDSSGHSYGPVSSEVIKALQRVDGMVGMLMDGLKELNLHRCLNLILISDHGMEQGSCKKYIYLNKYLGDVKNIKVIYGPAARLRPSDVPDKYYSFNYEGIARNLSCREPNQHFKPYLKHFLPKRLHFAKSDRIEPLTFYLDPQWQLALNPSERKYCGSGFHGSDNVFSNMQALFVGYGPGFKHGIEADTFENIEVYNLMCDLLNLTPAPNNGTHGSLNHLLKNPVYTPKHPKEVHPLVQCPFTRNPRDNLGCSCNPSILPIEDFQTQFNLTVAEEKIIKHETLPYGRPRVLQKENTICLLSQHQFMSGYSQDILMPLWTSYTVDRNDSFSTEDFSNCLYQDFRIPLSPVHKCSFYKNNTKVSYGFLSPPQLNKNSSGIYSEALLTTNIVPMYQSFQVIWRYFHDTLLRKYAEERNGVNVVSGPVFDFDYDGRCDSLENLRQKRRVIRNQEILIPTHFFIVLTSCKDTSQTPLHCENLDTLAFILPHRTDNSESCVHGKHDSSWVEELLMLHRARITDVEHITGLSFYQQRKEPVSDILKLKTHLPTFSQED
Experimental: 2′3′-cGAMP is a natural substrate specifically hydrolyzed by ENPP-1, and produces 5′-adenosine monophosphate (AMP) and 5′-guanosine monophosphate (GMP). AMP and GMP produced from the reaction are monitored for ENPP-1 enzyme activity through an AMP^2/GMP^2 ENPP-1 Assay kit (Bellbrook Labs, catalog number 3015).
First, the reaction mixture contains 25 mM Tris-HCl (pH 7.4), 5 mM MgCl2, 0.01% Brij-35, and 1% DMSO. Serially diluted ENPP-1 inhibitors (test compound concentrations ranging from 10 μM to 0.5 nM) are reacted with 200 pM ENPP-1 (Biovendor, catalog number RD172124100) and 10 μM substrate 2′3′-cGAMP at 37° C. for 30 minutes. All assays include a DMSO control without ENPP-1 inhibitor that provides maximal AMP and GMP production. After 30 minutes of this reaction, AMP and GMP production is detected as a measure of ENPP-1 enzymatic activity using the Transcreener® AMP^2/GMP^2 ENPP-1 Assay kit. The detection reagent is a reagent containing 16 nM AMP^2/GMP^2 Antibody-Tb, 25 mM Tris-HCl and 60.1 nM AMP/GMP HiLyte647 Tracer, which is added by 5 μl, mixed well, and incubated at 25° C. for 2 hours.
(§1) The […] signal is measured using a SPARK Cyto plate reader (Tecan). Inhibition (%) is calculated using the following formula: (Max 615:665 ratio-615:665 ratio)/Max 615:665 ratio×100%. % residual ENPP-1 enzyme activity versus IC50 values for ENPP-1 inhibitor concentrations were determined by fitting inhibition curves using the 4-parameter method of GraphPad Prism® software [GraphPad version 9.3.1 for Windows, GraphPad Software, La Jolla California USA, www.graphpad.com].

ENPP-1 [2] = biological target: T1, ENPP-1; assay: ENPP-1 enzyme assay with pNP-TMP substrate; type: biochemical; conditions: 12.5 ng ENPP-1, 720 μM substrate pNP-TMP, pH 9.0, 37° C., 60 minutes, absorbance 405 nm; average IC50
Experimental: In order to measure the ENPP-1 inhibitory activity of the compounds according to the present disclosure, the following tests were performed.
ENPP-1 hydrolyzes a variety of substrates, including phosphodiester bonds of nucleotides and nucleotide sugars and pyrophosphate bonds of nucleotides and nucleotide sugars. p-Nitrophenyl 5′-thymidine monophosphate (p-Nph-5′-TMP) is an artificial substrate for 5′-adenosine monophosphate (AMP), which is hydrolyzed by the human recombinant ENPP-1 enzyme. In the above reaction, ENPP-1 enzymatic activity is monitored through the formation of yellow p-nitrophenolate, which absorbs at 405 nm.
First, the reaction mixture contains 100 mM Tris-HCl (pH 9.0), 150 mM NaCl, […], and 1% DMSO. Serially diluted ENPP-1 inhibitors (test compound concentrations ranging from 10 μM to 0.5 nM) are reacted with 12.5 ng of ENPP-1 (Biovendor, catalog number RD172124100) and 720 μM substrate pNP-TMP at 37° C. for 60 minutes. All assays include a DMSO control without ENPP-1 inhibitor that gives maximum absorbance.
as §1, with “After 60 minutes of this reaction, the” for “The”, “an Epoch™ Microplate Spectrophotometer (BioTek Instruments Inc.).” for “a SPARK Cyto plate reader (Tecan).”, “Sample OD405 nm/Max OD405 nm×100%.” for “(Max 615:665 ratio-615:665 ratio)/Max 615:665 ratio×100%.”

| SMILES | IC50 (ENPP-1 [1]) [nM] | IC50 (ENPP-1 [2]) [nM] |
| --- | --- | --- |
| COc1ccc2c(c1)c1ncccc1n2Cc1ccc(S(C)(=N)=O)cc1 (single isomer, unassigned) [Compound 10a, imino (4-((8-methoxy-5H-pyrido[3,2-b]indol-5-yl)methyl)phenyl)(methyl)-l6-sulfanone] | < 1000 | < 1000 |
| COc1ccc2c(c1)c1ncccc1n2Cc1ccc(S(C)(=N)=O)cc1 (single isomer, unassigned) [Compound 10b, imino (4-((8-methoxy-5H-pyrido[3,2-b]indol-5-yl)methyl)phenyl)(methyl)-l6-sulfanone] |  | < 1000 |
| COc1cc2c3ncccc3n(Cc3ccc(S(C)(=N)=O)cc3)c2cc1F (single isomer, unassigned) [Compound 30a, (4-((7-fluoro-8-methoxy-5H-pyrido[3,2-b]indol-5-yl)methyl)phenyl)(imino)(methyl)-l6-sulfanone] | < 1000 | < 1000 |
| COc1cc2c3ncccc3n(Cc3ccc(S(C)(=N)=O)cc3)c2cc1F (single isomer, unassigned) [Compound 30b, (4-((7-fluoro-8-methoxy-5H-pyrido[3,2-b]indol-5-yl)methyl)phenyl)(imino)(methyl)-l6-sulfanone] |  | < 1000 |
| COc1cc2c3ncccc3n(Cc3ccc(S(=N)(=O)C4CC4)cc3)c2cc1F (single isomer, unassigned) [Compound 56a, cyclopropyl (4-((7-fluoro-8-methoxy-5H-pyrido[3,2-b]indol-5-yl)methyl)phenyl) (imino)-l6-sulfanone] |  | < 1000 |
| COc1cc2c3ncccc3n(Cc3ccc(S(=N)(=O)C4CC4)cc3)c2cc1F (single isomer, unassigned) [Compound 56b, cyclopropyl (4-((7-fluoro-8-methoxy-5H-pyrido[3,2-b]indol-5-yl)methyl)phenyl) (imino)-l6-sulfanone] | < 1000 |  |
| CS(=N)(=O)c1ccc(Cn2c3ccccc3c3ccncc32)cc1 (stereo not drawn) [Compound 1, (4-((9H-pyrido[3,4-b]indol-9-yl)methyl)phenyl)(imino)(methyl)-l6-sulfanone] | 1000 to 10000 | < 1000 |
| COc1ccc2c(c1)c1ccncc1n2Cc1ccc(S(N)(=O)=O)cc1 [Compound 2, 4-((6-methoxy-9H-pyrido[3,4-b]indol-9-yl)methyl)benzenesulfonamide] | < 1000 | < 1000 |
| COc1ccc2c(c1)c1ccncc1n2Cc1ccc(S(C)(=N)=O)cc1 (stereo not drawn) [Compound 3, imino (4-((6-methoxy-9H-pyrido[3,4-b]indol-9-yl)methyl)phenyl)(methyl)-l6-sulfanone] | < 1000 | < 1000 |
| COc1ccc2c(c1)c1cnccc1n2Cc1ccc(S(N)(=O)=O)cc1 [Compound 4, 4-((8-methoxy-5H-pyrido[4,3-b]indol-5-yl)methyl)benzenesulfonamide] | < 1000 | < 1000 |
| COc1ccc2c(c1)c1ncccc1n2Cc1ccc(S(N)(=O)=O)cc1 [Compound 5, 4-((8-methoxy-5H-pyrido[3,2-b]indol-5-yl)methyl)benzenesulfonamide] | < 1000 | < 1000 |
| COc1ccc2c(c1)c1ncccc1n2CC1CCN(S(N)(=O)=O)CC1 [Compound 6, 4-((8-methoxy-5H-pyrido[3,2-b]indol-5-yl)methyl) piperidine-1-sulfonamide] | < 1000 | < 1000 |
| CNS(=O)(=O)c1ccc(Cn2c3ccc(OC)cc3c3ncccc32)cc1 [Compound 7, 4-((8-methoxy-5H-pyrido[3,2-b]indol-5-yl)methyl)-N-methylbenzenesulfonamide] | > 10000 | 1000 to 10000 |
| COc1ccc2c(c1)c1ncccc1n2Cc1ccc(NS(N)(=O)=O)cc1 [Compound 8, N-(4-((8-methoxy-5H-pyrido[3,2-b]indol-5-yl)methyl)phenyl) sulfamide] | < 1000 | < 1000 |
| COc1ccc2c(c1)c1ncccc1n2CCc1ccc(S(N)(=O)=O)cc1 [Compound 9, 4-(2-(8-methoxy-5H-pyrido[3,2-b]indol-5-yl)ethyl)benzenesulfonamide] | > 10000 | < 1000 |
| CCS(=N)(=O)c1ccc(Cn2c3ccc(OC)cc3c3ncccc32)cc1 (stereo not drawn) [Compound 11, ethyl (imino) (4-((8-methoxy-5H-pyrido[3,2-b]indol-5-yl)methyl)phenyl)-l6-sulfanone] | < 1000 | < 1000 |
| COc1ccc2c(c1)c1ncccc1n2Cc1ccc(S(=N)(=O)Cc2ccccc2)cc1 (stereo not drawn) [Compound 12, benzyl(imino)(4-((8-methoxy-5H-pyrido[3,2-b]indol-5-yl)methyl)phenyl)-l6-sulfanone] | < 1000 | < 1000 |
| COc1ccc2c(c1)c1c(n2Cc2ccc(S(N)(=O)=O)cc2)CNC(C)C1 (stereo not drawn) [Compound 33, 4-((6-methoxy-3-methyl-1,2,3,4-tetrahydro-9H-pyrido[3,4-b]indol-9-yl)methyl)benzene sulfonamide] |  | > 10000 |
| COc1ccc2c(c1)c1c(n2Cc2cccc(S(N)(=O)=O)c2)CCCN1 [Compound 39, 3-((8-methoxy-1,2,3,4-tetrahydro-5H-pyrido[3,2-b]indol-5-yl)methyl)benzenesulfonamide] |  | > 10000 |
| Cc1ccc2c(c1)c1c(n2Cc2ccc(S(N)(=O)=O)cc2)CCCN1 [Compound 40, 4-((8-methyl-1,2,3,4-tetrahydro-5H-pyrido[3,2-b]indol-5-yl)methyl)benzenesulfonamide] |  | 1000 to 10000 |
| COc1ccc2c(c1)c1cnncc1n2Cc1ccc(S(N)(=O)=O)cc1 [Compound 50, 4-((8-methoxy-5H-pyridazino[4,5-b]indol-5-yl)methyl)benzenesulfonamide] |  | 1000 to 10000 |
| COc1ccc2c(c1F)c1ncccc1n2Cc1ccc(S(N)(=O)=O)cc1 [Compound 54, 4-((9-fluoro-8-methoxy-5H-pyrido[3,2-b]indol-5-yl)methyl)benzenesulfonamide] | < 1000 |  |
| COc1ccc2c(c1)c1ncccc1n2Cc1ccc(S(C)(=N)=O)cc1C(F)(F)F (stereo not drawn) [Compound 55, imino (4-((8-methoxy-5H-pyrido[3,2-b]indol-5-yl)methyl)-3-(trifluoromethyl)phenyl)(methyl)-l6-sulfanone] |  | > 10000 |
